Source: patent publication US20250127937A1, “FAP INHIBITOR” (UNIVERSITÄT HEIDELBERG, priority 2018, published 2025)

Columns and labels:
human FAP-α = human FAP-α (Homo sapiens (Human), UniProt Q12884); assay: Competitive binding of radiolabeled compound to HT-1080-FAP cells against unlabeled compound; settings: radiolabeled FAPI-01 (I-125) / FAPI-02 (Lu-177), HT-1080-FAP cells, 60 min; read-out: IC50 human FAP-α
Protocol: Competition experiments were performed by simultaneous exposure to unlabeled (10^−5 M to 10^−9M) and radiolabeled compound for 60 min. […] For internalization experiments, surface bound activity was removed by incubating the cells with 1 M glycine-HCl buffer for 10 min. The radioactivity was measured using a γ-counter, normalized to 1 mio cells and calculated as percentage of applied dose (% ID).
The medium was replaced by 1 mL fresh medium without fetal calf serum. […] Competition experiments were performed by simultaneous exposure to unlabeled (10^−5 M to 10^−9 M) and radiolabeled compound for 60 min. […] In all experiments, the cells were washed with 1 mL phosphate-buffered saline pH 7.4 for 2 times and subsequently lysed with 1.4 ml lysis buffer (0.3 M NaOH, 0.2% SDS). Radioactivity was determined in a γ-counter (Cobra II, Packard), normalized to 1 mio cells and calculated as percentage of the applied dose (% ID). Each experiment was performed 3 times, and 3 repetitions per independent experiment were acquired.

[1] = Preliminary dosimetry estimate in patients; assay type: in vivo, human
[2] = system: HT-1080-FAP tumor xenografts; assay: Organ distribution ex vivo in HT-1080-FAP tumor bearing nude mice; set-up: species or system mouse
Protocol: (§1) For in vivo experiments, 8 week old BALB/c nu/nu mice (Charles River) were subcutaneously inoculated into the right trunk with 5×10^6 with HT-1080-FAP, Capan-2 or SK-LMS-1 cells, respectively. When the size of the tumor reached approximately 1 cm^3, the radiolabeled compound was injected via the tail vein (˜10 MBq for small-animal PET imaging; ˜1 MBq for organ distribution). PET imaging was performed up to 140 min after intravenous injection of 1 MBq of Ga-68 labeled compound per mouse using the Inveon PET small-animal PET scanner (Siemens). Images were reconstructed iteratively using the 3D-OSEM+MAP method and were converted to standardized uptake value (SUV) images. Quantification was done using a ROI technique and expressed as SUV mean. For organ distribution of Lu-177 labeled compound (approx. […] per mouse), the animals (n=3 for each time point) were sacrificed after indicated time points (from 30 min to 24 h). The distributed radioactivity was measured in all dissected organs and in blood using a γ-counter (Cobra Autogamma, Packard). The values are expressed as percentage of injected dose per gram of tissue (% ID/g).

[3] = system: tumor lesions and normal tissue of cancer patients; assay: Clinical PET/CT imaging in cancer patients (SUV); assay type: in vivo, human
Protocol: Diagnostic imaging of more than 100 patients was performed under the conditions of the updated declaration of Helsinki, § 37 (Unproven interventions in clinical practice) and in accordance to the German Pharmaceuticals Law § 13 (2b) for medical reasons using either ^68Ga-FAPI-02 or -04, which was applied intravenously (20 nmol, 122-336 MBq), 10 min, 1 and 3 hours post tracer administration. Variation of injected radiotracer activity is due to the short half-life of ^68Ga and the variable elution efficiencies obtained during the lifetime of the ^68Ge/^68Ga generator. […] The PET/CT scans were performed with a Biograph mCT Flow™ PET/CT-Scanner (Siemens Medical Solution) using the following parameters: slice thickness of 5 mm, increment of 3-4 mm, soft-tissue reconstruction kernel, care dose. Immediately after CT scanning, a whole-body PET was acquired in 3D (matrix 200×200) in FlowMotion™ with 0.7 cm/min. The emission data were corrected for random, scatter and decay. Reconstruction was conducted with an ordered subset expectation maximisation (OSEM) algorithm with 2 iterations/21 subsets and Gauss-filtered to a transaxial resolution of 5 mm at full-width half-maximum (FWHM). Attenuation correction was performed using the low-dose non-enhanced CT data. The quantitative assessment of standardized uptake values (SUV) was done using a region of interest technique.
For the normal tissue of 16 organs, a 2 cm Spheric-VOI was placed in the parenchyma, for tumor lesions a threshold segmented VOI was used to quantify SUVmean/max^3.

[4] = system: HT-1080-FAP tumor xenografts; assay: Dynamic small-animal PET, two-tissue compartment model, HT-1080-FAP xenografts; assay type: in vivo, mouse; settings: 68Ga-FAPI-02, HT-1080-FAP
Protocol: as §1
For pharmakokinetic modeling the transport constant K1 and the rate constants k2-k4 were calculated using a two-tissue compartment model implemented in the PMOD software, taking into account the vascular fraction (vB), which is associated with the volume of blood exchanging with tissue in a VOI. The rate constants that describe the compartmental fluxes include k1 (binding to the receptor), k2 (detachment) as well as k3 (internalization) and k4 (efflux) in the tumor tissue. In this model the fractional volume of distribution (DV=K1/k2) is the proportion of the region of interest in which […] is distributed.

[5] = Lu-177 labeled, 1 h after i.v., HT-1080-FAP, mean ± SD, n = 3
[6] = 1 h p.i., intra-individual comparison of 6 patients

Sequence of human FAP-α (Q12884 whole entry): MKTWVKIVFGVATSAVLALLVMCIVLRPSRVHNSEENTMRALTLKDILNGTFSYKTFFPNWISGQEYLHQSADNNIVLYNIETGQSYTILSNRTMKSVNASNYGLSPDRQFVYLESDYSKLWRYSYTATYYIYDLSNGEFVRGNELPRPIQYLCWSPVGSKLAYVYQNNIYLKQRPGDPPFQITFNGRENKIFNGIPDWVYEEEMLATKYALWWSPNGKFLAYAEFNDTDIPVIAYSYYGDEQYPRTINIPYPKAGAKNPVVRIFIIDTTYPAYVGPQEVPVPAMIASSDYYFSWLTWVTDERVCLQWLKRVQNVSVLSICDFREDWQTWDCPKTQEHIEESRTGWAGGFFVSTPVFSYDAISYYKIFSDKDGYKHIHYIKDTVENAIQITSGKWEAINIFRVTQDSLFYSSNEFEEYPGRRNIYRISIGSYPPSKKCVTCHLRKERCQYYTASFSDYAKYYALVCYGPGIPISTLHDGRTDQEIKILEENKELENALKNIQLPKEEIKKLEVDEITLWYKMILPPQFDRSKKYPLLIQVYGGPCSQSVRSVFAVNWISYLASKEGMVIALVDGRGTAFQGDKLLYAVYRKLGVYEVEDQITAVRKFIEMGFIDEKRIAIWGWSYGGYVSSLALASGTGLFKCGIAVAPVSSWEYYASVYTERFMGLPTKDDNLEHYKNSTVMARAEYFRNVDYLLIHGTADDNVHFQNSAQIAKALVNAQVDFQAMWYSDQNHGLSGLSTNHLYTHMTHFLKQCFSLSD

SMILES: N#C[C@@H]1CCCN1C(=O)CNC(=O)c1ccnc2ccc(OCCCN3CCN(C(=O)CN4CCN(CC(=O)O)CCN(CC(=O)O)CCN(CC(=O)O)CC4)CC3)cc12 [FAPI-02]
- IC50 (human FAP-α): 21 nM
- equivalent dose of an exam ([1]; 200 MBq Ga-68): 3-4 mSv
- effective dose ([1]; calculated with IDAC1/ICRP60): 1.82E-02 mSv/MBq
- effective dose ([1]; calculated with IDAC2/ICRP103): 1.79E-02 mSv/MBq
- effective dose ([1]; calculated with OLINDA): 1.80E-02 mSv/MBq
- highest enrichment within the FAP-expressing tumor ([2]; 177Lu labeled, after 1 h): 4.5 % ID/g
- Tumor uptake 1 h ([2]; HT-1080-FAP tumor bearing nude mice, 1 h, mean ± SD, n = 3): 4.5 ± 0.82 % ID/g
- Tumor uptake 4 h ([2]; HT-1080-FAP tumor bearing nude mice, 4 h, mean ± SD, n = 3): 4.0 ± 0.56 % ID/g
- Tumor uptake 24 h ([2]; HT-1080-FAP tumor bearing nude mice, 24 h, mean ± SD, n = 3): 1.12 ± 0.13 % ID/g
- Blood uptake [2, 5]: 1.20 ± 0.178 % ID/g
- Brain uptake [2, 5]: 0.06 ± 0.006 % ID/g
- Heart uptake [2, 5]: 0.56 ± 0.085 % ID/g
- Intestines uptake [2, 5]: 0.31 ± 0.046 % ID/g
- Kidneys uptake [2, 5]: 1.60 ± 0.075 % ID/g
- Liver uptake [2, 5]: 0.45 ± 0.074 % ID/g
- Lungs uptake [2, 5]: 1.02 ± 0.152 % ID/g
- Muscle uptake [2, 5]: 1.17 ± 0.332 % ID/g
- Spleen uptake [2, 5]: 0.38 ± 0.051 % ID/g
- Tumor uptake [2, 5]: 4.51 ± 0.816 % ID/g
- maximum SUV values in primary tumor, lymph node and bone metastases ([3]; 68Ga labeled, 1 h after i.v. administration, patients): ≤ 48.0
- background uptake in brain [3, 6]: 0.32
- background uptake in liver [3, 6]: 1.69
- background uptake in oral/pharyngeal mucosa [3, 6]: 2.57
- tumor uptake, average SUV max [3, 6]: 7.37
- decrease of tumor uptake (washout) ([3]; from 1 h to 3 h p.i., patients): 75%
- Flux ([4]; + comp.): 0.01 ml/ccm/min
- Vs (ratio of specific binding concentration to total parent at equilibrium) ([4]; + comp.): 0.18 ml/ccm
- Vt (total distribution volume) ([4]; + comp.): 0.48 ml/ccm
- k1 ([4]; + comp.): 0.10 ml/ccm/min
- k2 ([4]; + comp.): 0.32 min⁻¹
- k3 ([4]; + comp.): 0.04 min⁻¹
- k4 ([4]; + comp.): 0.07 min⁻¹
- vB (vascular fraction) ([4]; + comp.): 0.04 l/l
- Flux ([4]; − comp.): 0.03 ml/ccm/min
- Vs (ratio of specific binding concentration to total parent at equilibrium) ([4]; − comp.): 2.31 ml/ccm
- Vt (total distribution volume) ([4]; − comp.): 0.87 ml/ccm
- k1 ([4]; − comp.): 0.07 ml/ccm/min
- k2 ([4]; − comp.): 0.13 min⁻¹
- k3 ([4]; − comp.): 0.1 min⁻¹
- k4 ([4]; − comp.): 0.02 min⁻¹
- vB (vascular fraction) ([4]; − comp.): 0.04 l/l
